{"source": "ChEMBL document CHEMBL1201862", "about": "“PubChem BioAssay data set” (2004)", "key": {"[1]": {"biological_target": "Luciferin 4-monooxygenase (Photinus pyralis, UniProt P08659)", "sequence (P08659 whole entry)": "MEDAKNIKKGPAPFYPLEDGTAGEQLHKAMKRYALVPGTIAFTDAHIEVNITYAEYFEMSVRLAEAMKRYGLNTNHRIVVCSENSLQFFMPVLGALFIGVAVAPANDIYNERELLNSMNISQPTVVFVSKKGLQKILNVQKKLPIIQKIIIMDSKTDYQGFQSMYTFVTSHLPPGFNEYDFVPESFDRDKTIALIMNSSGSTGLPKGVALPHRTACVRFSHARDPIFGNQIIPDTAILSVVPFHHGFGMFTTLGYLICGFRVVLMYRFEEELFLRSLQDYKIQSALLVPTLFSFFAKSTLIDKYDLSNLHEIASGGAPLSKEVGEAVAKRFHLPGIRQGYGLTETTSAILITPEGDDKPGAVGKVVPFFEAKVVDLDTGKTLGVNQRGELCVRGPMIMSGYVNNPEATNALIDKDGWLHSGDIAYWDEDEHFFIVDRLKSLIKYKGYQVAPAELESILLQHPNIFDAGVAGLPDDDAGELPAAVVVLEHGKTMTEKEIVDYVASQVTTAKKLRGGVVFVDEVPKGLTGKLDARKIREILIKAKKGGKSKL", "experiment": "Counter Screen for Luciferase-based Assay Positives. [Related pubchem assays: 620, 618, 411 ]"}, "HT-1080": {"test_system": "HT-1080", "experiment": "cytotoxicity in HT1080 fibrosarcoma cells, cell-based, fluorescence readout (AID 620)", "type": "functional", "settings": "Homo sapiens"}, "Bcl-2-like protein 10": {"biological_target": "Bcl-2-like protein 10 (Homo sapiens, UniProt Q9HD36)", "sequence (Q9HD36 whole entry)": "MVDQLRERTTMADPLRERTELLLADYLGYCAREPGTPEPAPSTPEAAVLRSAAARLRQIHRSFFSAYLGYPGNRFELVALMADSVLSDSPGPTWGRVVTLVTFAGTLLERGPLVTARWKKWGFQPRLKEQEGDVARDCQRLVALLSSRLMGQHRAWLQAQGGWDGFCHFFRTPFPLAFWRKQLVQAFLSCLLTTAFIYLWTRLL", "experiment": "Biochemical TR3 FP assay of Bcl-B inhibitor potency, EC50 (AID 1243)", "type": "functional"}, "[2]": {"biological_target": "Induced myeloid leukemia cell differentiation protein Mcl-1 (Homo sapiens, UniProt Q07820)", "sequence (Q07820 whole entry)": "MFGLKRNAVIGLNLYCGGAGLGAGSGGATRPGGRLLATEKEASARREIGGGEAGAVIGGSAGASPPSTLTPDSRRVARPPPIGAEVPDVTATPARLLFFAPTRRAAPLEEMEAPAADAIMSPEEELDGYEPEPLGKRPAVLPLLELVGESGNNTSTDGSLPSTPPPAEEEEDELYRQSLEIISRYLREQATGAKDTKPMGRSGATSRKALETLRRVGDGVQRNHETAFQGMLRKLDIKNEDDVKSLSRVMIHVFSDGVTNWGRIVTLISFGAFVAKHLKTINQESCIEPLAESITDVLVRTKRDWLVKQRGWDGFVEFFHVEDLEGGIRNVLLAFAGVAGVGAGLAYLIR", "type": "functional"}, "SUMO-activating enzyme [3]": {"biological_target": "T1, SUMO-activating enzyme (Homo sapiens, UniProt Q9UBT2)", "T1 sequence (Q9UBE0 whole entry)": "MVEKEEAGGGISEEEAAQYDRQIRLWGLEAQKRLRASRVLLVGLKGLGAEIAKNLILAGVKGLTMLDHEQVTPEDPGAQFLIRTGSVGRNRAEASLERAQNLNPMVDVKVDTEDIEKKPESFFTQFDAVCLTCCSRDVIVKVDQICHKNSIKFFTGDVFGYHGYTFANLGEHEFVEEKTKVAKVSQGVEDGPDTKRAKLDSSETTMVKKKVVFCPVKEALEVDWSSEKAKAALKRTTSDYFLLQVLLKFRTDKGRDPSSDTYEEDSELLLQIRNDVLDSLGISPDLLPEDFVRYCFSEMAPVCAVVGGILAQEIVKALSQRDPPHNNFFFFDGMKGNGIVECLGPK", "T1 sequence (Q9UBT2 whole entry)": "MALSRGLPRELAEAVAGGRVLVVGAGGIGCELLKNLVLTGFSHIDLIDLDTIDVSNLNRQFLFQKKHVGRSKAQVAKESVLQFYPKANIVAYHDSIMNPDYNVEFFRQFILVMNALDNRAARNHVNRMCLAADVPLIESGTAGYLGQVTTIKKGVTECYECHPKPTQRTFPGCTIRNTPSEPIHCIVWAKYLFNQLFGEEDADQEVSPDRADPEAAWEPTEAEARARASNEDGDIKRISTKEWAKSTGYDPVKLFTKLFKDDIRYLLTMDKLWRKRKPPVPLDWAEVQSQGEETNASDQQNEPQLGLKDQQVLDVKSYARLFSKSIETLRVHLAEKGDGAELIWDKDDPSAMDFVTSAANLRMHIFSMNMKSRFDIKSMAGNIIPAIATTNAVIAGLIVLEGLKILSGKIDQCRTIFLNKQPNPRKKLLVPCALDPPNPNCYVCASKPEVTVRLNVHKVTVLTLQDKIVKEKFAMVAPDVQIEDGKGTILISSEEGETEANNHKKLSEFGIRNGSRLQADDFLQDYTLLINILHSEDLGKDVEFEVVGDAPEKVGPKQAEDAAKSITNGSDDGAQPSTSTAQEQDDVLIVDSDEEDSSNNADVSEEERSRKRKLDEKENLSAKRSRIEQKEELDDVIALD", "experiment": "SUMOylation inhibitor hit validation, confirmation, SUMOylation inhibitor project, biochemical, AlphaScreen (AID 2018)", "type": "functional"}, "[4]": {"biological_target": "T2, Calpain-2 catalytic subunit (Sus scrofa, UniProt P43367)", "T2 sequence (P43367 whole entry)": "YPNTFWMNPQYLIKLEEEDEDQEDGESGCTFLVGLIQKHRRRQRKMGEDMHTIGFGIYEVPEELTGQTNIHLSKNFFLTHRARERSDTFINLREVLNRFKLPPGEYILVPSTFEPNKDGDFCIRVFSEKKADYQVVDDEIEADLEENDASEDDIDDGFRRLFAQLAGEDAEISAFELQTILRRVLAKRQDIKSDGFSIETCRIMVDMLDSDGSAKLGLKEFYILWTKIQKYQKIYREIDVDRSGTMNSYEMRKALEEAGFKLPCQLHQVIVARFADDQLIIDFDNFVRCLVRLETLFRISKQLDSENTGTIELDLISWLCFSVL", "experiment": "pig calpain II inhibitor potency, dose response, biochemical, fluorogenic peptide substrate (AID 1420)", "type": "functional"}, "SUMO-activating enzyme [5]": {"biological_target": "T1, SUMO-activating enzyme", "experiment": "inhibitors of in vitro SUMOylation cascade, primary screen, biochemical, HTRF, uHTS (AID 2006)", "type": "protein-complex assay"}, "[6]": {"experiment": "HIV-1 Env-mediated cell fusion inhibitors, dose response, CCR5-tropic Env (AID 2279)", "type": "functional"}, "[7]": {"biological_target": "Mothers against decapentaplegic homolog 3 (Homo sapiens, UniProt P84022)", "sequence (P84022 whole entry)": "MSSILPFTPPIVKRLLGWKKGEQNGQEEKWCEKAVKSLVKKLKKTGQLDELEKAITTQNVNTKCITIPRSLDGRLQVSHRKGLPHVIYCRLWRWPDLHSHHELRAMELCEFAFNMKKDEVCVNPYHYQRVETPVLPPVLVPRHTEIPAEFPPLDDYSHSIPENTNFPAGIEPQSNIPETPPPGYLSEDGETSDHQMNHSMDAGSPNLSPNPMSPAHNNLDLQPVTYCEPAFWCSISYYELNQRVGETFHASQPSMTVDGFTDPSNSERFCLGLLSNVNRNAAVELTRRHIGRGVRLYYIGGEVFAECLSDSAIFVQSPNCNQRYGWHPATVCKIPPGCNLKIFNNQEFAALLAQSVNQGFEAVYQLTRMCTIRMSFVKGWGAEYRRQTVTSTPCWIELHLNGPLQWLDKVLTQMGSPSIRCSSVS", "experiment": "Smad3 binding inhibitors, lysate ELISA, dose response, cell lysate, secondary confirmation, chemiluminescent ELISA, HEK293 lysate (AID 1058)", "type": "functional"}, "Vero [8]": {"test_system": "Vero", "experiment": "cells", "type": "functional", "settings": "Chlorocebus sabaeus"}, "[9]": {"experiment": "cytotoxicity toward DRD oncogenic fibroblasts, dose response, cell-based, non-viral oncogenic, luminescence (AID 1934)", "type": "functional", "settings": "Homo sapiens"}, "[10]": {"experiment": "inhibitors of SNCA 5'UTR-driven reporter translation, confirmation, H4 neuroglioma cells, luminescence (AID 1988)", "type": "functional, cell-based"}, "[11]": {"experiment": "Luminescence Cell-Based Dose Response HTS to Identify Inhibitors of 5'UTR Stem-Loop Driven Prion Protein mRNA Translation in H4 Neuroglioblastoma Cells. [Related pubchem assays: 1827 (Project Summary), 1813 (Primary HTS)]", "type": "functional"}, "BJ [12]": {"test_system": "BJ", "experiment": "cytotoxicity toward BJ-TERT-LT-ST fibroblasts, dose response, cell-based, RAS-independent, luminescence (AID 1935);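 further: BJ fibroblasts immortalized with TERT plus LT and ST oncogenes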", "type": "functional", "settings": "Homo sapiens"}, "Paired box protein Pax-8": {"biological_target": "Paired box protein Pax-8 (Homo sapiens, UniProt Q06710)", "sequence (Q06710 whole entry)": "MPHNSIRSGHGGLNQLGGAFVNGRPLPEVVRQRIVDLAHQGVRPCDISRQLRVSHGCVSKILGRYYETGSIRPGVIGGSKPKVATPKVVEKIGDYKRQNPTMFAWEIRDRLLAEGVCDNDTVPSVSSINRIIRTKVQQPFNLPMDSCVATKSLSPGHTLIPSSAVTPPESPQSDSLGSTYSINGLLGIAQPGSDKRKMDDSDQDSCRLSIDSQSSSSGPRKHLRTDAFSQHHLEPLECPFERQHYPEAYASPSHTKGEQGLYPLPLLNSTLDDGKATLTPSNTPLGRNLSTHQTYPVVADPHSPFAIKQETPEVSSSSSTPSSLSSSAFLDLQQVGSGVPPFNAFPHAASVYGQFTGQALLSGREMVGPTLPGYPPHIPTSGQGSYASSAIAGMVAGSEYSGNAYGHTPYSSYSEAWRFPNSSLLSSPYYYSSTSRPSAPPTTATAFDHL", "experiment": "inhibitors of PAX8-driven TPO luciferase reporter, dose response, RMG-I cells, cherry-pick (AID 687027);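 further: luciferase reporter driven by Pax8 target thyroperoxidase promoter measured by SteadyGlo luminescence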", "type": "functional, cell-based"}, "BJ [13]": {"test_system": "BJ", "experiment": "cells", "type": "functional, cell-based", "settings": "Homo sapiens"}, "[14]": {"experiment": "Luminescence-based counterscreen assay for KLF5 inhibitors: dose response cell-based high throughput screening assay to identify cytotoxic compounds using the IEC-6 intestinal epithelial cell line. [Related pubchem assays: 1700 (Primary screen.), 1834 (Confirmation screen.), 1858 (Summary AID.), 1905 (Counterscreen.)]", "type": "functional"}, "BJ [15]": {"test_system": "BJ", "experiment": "cytotoxicity toward Ras-transformed BJeLR fibroblasts, dose response, cell-based, alamar blue fluorescence, cherrypicked samples (AID 2631);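 further: confirmatory dose-response assay in RAS-dependent BJ fibroblasts engineered with TERT, LT and ST, with cytotoxicity read by fluorescence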", "type": "functional", "settings": "Homo sapiens"}, "[16]": {"experiment": "Luminescence Cell-Based Dose Retest to Confirm Inhibitors of Cancer Stem Cells. [Related pubchem assays (depositor defined):AID2717, AID2721]", "type": "functional, Homo sapiens"}, "BJ [17]": {"test_system": "BJ", "experiment": "cytotoxicity toward BJ-TERT fibroblasts, dose response, cell-based, RAS-independent, luminescence (AID 1933)", "type": "functional", "settings": "Homo sapiens"}, "Vero [18]": {"test_system": "Vero", "experiment": "host cell cytotoxicity of antiviral hits, dose response, cytotoxicity control for West Nile virus antiviral project, secondary assay (AID 1650)", "type": "functional", "settings": "Chlorocebus sabaeus"}, "[19]": {"experiment": "inhibitors of firefly luciferase expression or activity, dose response, H4 neuroglioma cells, luminescence (AID 1990)", "type": "functional, cell-based"}, "Vero [20]": {"test_system": "Vero", "experiment": "cells", "type": "functional, cell-based", "settings": "Chlorocebus sabaeus"}, "[21]": {"experiment": "cytotoxicity in HEK-293T cells, dose response, cytotoxicity control for TCR NF-kB inhibitor project, luminescence, T-cell screen hits (AID 489026);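 further: cells exposed to compound about 14 hours before the viability readout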", "type": "functional, cell-based"}, "[22]": {"biological_target": "T3, Alkaline phosphatase, tissue-nonspecific isozyme (Homo sapiens, UniProt P05186)", "T3 sequence (P05186 whole entry)": "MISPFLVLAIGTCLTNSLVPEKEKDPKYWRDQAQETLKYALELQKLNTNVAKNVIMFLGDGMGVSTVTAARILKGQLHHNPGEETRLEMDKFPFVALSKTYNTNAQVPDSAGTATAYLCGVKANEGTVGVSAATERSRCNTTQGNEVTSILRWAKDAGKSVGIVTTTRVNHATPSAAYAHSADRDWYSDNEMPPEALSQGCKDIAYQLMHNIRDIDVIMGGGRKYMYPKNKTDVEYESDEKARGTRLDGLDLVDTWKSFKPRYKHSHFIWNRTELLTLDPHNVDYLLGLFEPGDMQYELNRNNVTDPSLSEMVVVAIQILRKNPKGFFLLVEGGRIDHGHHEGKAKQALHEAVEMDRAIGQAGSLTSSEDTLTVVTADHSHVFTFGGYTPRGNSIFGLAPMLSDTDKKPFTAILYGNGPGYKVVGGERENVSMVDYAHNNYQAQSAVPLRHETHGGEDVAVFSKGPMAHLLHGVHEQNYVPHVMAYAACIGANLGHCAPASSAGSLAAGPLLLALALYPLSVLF"}, "HeLa": {"test_system": "HeLa", "experiment": "Cytotoxicity counterscreen assay for transcriptional activators of heat shock protein 70 (Hsp70). [Related pubchem assays: 1203, 1252 ]", "type": "functional", "settings": "Homo sapiens"}}, "note": "Activity calls are given as the source filed them.", "data": [{"smiles": "CCc1nnc(NC(=O)c2ccc(OC)cc2OC)s1", "values": [{"measurement": "EC50", "setting": "[1]", "result": "> 100 µM (not active)"}, {"measurement": "EC50", "setting": "HT-1080", "result": "> 50 µM (not active)"}]}, {"smiles": "COc1ccc(OC)c(C=NNC(=O)c2cc[n+](CC(=O)c3ccccc3)cc2)c1", "values": [{"measurement": "EC50", "setting": "Bcl-2-like protein 10", "result": "1.35 µM (active)"}]}, {"smiles": "O=[N+]([O-])c1cccc(S(=O)(=O)Nc2nc3ccccc3nc2Nc2cccc(S(=O)(=O)N3CCCCC3)c2)c1", "values": [{"measurement": "IC50", "setting": "[2]", "result": "5.85 µM (active)"}, {"measurement": "IC50", "setting": "SUMO-activating enzyme [3]", "result": "4.59 µM (active)"}, {"measurement": "IC50", "setting": "[4]", "result": "4.49 µM (not active)"}, {"measurement": "IC50", "setting": "SUMO-activating enzyme [5]", "result": "20.1 µM (active)"}, {"measurement": "IC50", "setting": "[6]", "result": "6.03 µM (active)"}]}, {"smiles": "COc1ccc(C(c2cc3c(cc2O)OCO3)N2CCCC2)cc1", "note": "(configuration not stated)", "values": [{"measurement": "IC50", "setting": "[7]", "result": "14.6 µM (not active)"}]}, {"smiles": "C[C@@H]1O[C@@H](O[C@H]2C[C@@H](O)[C@]3(CO)[C@H]4[C@H](O)C[C@]5(C)[C@@H](C6COC(=O)C6)CC[C@]5(O)[C@@H]4CC[C@]3(O)C2)[C@H](O)[C@H](O)[C@H]1O", "note": "(some centres not stated)", "values": [{"measurement": "CC50", "setting": "Vero [8]", "result": "4.84 µM (active)"}, {"measurement": "EC50", "setting": "[9]", "result": "0.44 µM (active)"}, {"measurement": "EC50", "setting": "[10]", "result": "0.102 µM (active)"}, {"measurement": "EC50", "setting": "[11]", "result": "0.132 µM (active)"}, {"measurement": "EC50", "setting": "BJ [12]", "result": "2.78 µM (inconclusive)"}, {"measurement": "AC50", "setting": "Paired box protein Pax-8", "result": "5.38 µM (active)"}, {"measurement": "EC50", "setting": "BJ [13]", "result": "4.77 µM (inconclusive)"}, {"measurement": "IC50", "setting": "[14]", "result": "> 39.8 µM (not active)"}, {"measurement": "EC50", "setting": "BJ [15]", "result": "0.39 µM (active)"}, {"measurement": "AC50", "setting": "[16]", "result": "1.28 µM (active)"}, {"measurement": "AC50", "setting": "[16]; Homo sapiens", "result": "1.46 µM (active)"}, {"measurement": "EC50", "setting": "BJ [17]", "result": "0.405 µM (inconclusive)"}, {"measurement": "CC50", "setting": "Vero [18]", "result": "1.91 µM (active)"}, {"measurement": "EC50", "setting": "[19]", "result": "0.251 µM (active)"}, {"measurement": "IC50", "setting": "Vero [20]", "result": "< 0.05 µM (active)"}, {"measurement": "IC50", "setting": "[21]", "result": "> 80 µM (inactive)"}]}, {"smiles": "COCCNC(=O)CCC(=O)NNc1nc2ccccc2c2nc(-c3ccccc3)nn12", "values": [{"measurement": "EC50", "setting": "[22]", "result": "82 µM (not active)"}]}, {"smiles": "Cc1cc(C)nc(SCc2nnc(SCC(=O)Nc3cc(C(F)(F)F)ccc3Cl)o2)n1", "values": [{"measurement": "CC50", "setting": "HeLa", "result": "> 99 µM (not active)"}]}]}
